Measured values taken from ChEMBL document CHEMBL5338827, “Evolution and Discovery of Matrine Derivatives as a New Class of Anti-Hepatic Fibrosis Agents Targeting Ewing Sarcoma Breakpoint Region 1 (EWSR1)” (J Med Chem, 2023).
Calls of active or inactive are those of the source. The calls are words filed in the database; no cut-off is given here.

Experiments:
[1] = test system: COL1A1; assay: Selectivity index, ratio of CC50 for cytotoxicity against human LX2 cells assessed as reduction in cell viability to IC50 for inhibition of COL1A1 (unknown origin) expressed in human LX2 cells; format: toxicity, cell-based; conditions: LX-2 cells, read-out: Ratio CC50/IC50
[2] = test system: LX-2; assay: Effect on EWSR1 expression in human LX2 cells at 2.5 to 20 uM; format: functional, cell-based; conditions: dose 2.5-20 µM
[3] = test system: LX-2; assay: Anti-hepatic fibrosis activity in human LX2 cells assessed as inhibition of TGF-beta1 induced alpha-SMA mRNA expression at 20 uM incubated for 24 hrs by qRT-PCR analysis; format: functional, cell-based
[4] = test system: Mus musculus; assay: Anti-hepatic fibrosis activity in MDR2 knockout liver injury mouse model assessed as reduction in AST level at 100 mg/kg, po administered once a day for 4 weeks (reference value: 400+/-156.78 U/L); format: functional
[5] = test system: LX-2; assay: Anti-hepatic fibrosis activity in human LX2 cells assessed as inhibition of TGFbeta1-induced alpha-SMA protein expression at 20 uM incubated for 24 hrs by western blot analysis; format: functional, cell-based
[6] = test system: Rattus norvegicus; assay: Anti-hepatic fibrosis activity in bile duct ligation rat model assessed as reduction inflammation score at 100 mg/kg, po administered for 14 days; format: functional, organism-based; conditions: time 14.0 day
[7] = test system: Rattus norvegicus; assay: Anti-hepatic fibrosis activity in bile duct ligation rat model assessed as reduction in […] level at 100 mg/kg, po administered for 14 days; format: functional; conditions: time 14 day
[8] = test system: Rattus norvegicus; assay: Anti-hepatic fibrosis activity in bile duct ligation rat model assessed as reduction in bile duct hyperplasia at 100 mg/kg, po administered for 14 days by hematoxylin and eosin staining based analysis; format: functional, organism-based; conditions: time 14.0 day
[9] = test system: Rattus norvegicus; assay: Anti-hepatic fibrosis activity in bile duct ligation rat model assessed as reduction in CoL1A1 mRNA expression at 100 mg/kg, po administered for 14 days by qRT-PCR analysis; format: functional, organism-based; conditions: time 14.0 day
[10] = test system: Rattus norvegicus; assay: Anti-hepatic fibrosis activity in bile duct ligation rat model assessed as reduction in bile TBiL level at 100 mg/kg, po administered for 14 days; format: functional; conditions: time 14 day
[11] = test system: Mus musculus; assay: Anti-hepatic fibrosis activity in MDR2 knockout liver injury mouse model assessed as reduction in alpha-SMA protein expression at 100 mg/kg, po administered once a day for 4 weeks by Western blot analysis; format: functional, organism-based
[12] = test system: Rattus norvegicus; assay: Anti-hepatic fibrosis activity in bile duct ligation rat model assessed as reduction in bile duct proliferation at 100 mg/kg, po administered for 14 days by Immunofluorescence analysis; format: functional, organism-based; conditions: time 14.0 day
[13] = test system: Rattus norvegicus; assay: Anti-hepatic fibrosis activity in bile duct ligation rat model assessed as reduction in ALP level at 100 mg/kg, po administered for 14 days; format: functional; conditions: time 14 day
[14] = test system: Rattus norvegicus; assay: Anti-hepatic fibrosis activity in bile duct ligation rat model assessed as reduction in TGFB1 protein expression at 100 mg/kg, po administered for 14 days by Western blot analysis; format: functional, organism-based; conditions: time 14.0 day
[15] = test system: Mus musculus; assay: Anti-hepatic fibrosis activity in MDR2 knockout liver injury mouse model assessed as reduction in ALT level at 100 mg/kg, po administered once a day for 4 weeks (reference value: 397+/-123.30 U/L); format: functional
[16] = test system: Mus musculus; assay: Anti-hepatic fibrosis activity in MDR2 knockout liver injury mouse model assessed as reduction in serum TBiL level at 100 mg/kg, po administered once a day for 4 weeks (reference value: 8.72+/-1.72 micromol/L); format: functional
[17] = molecular target: T1, Secreted frizzled-related protein 1 (Homo sapiens) (UniProt Q8N474); assay: Binding affinity to SFRP1 (unknown origin) in human LX2 cells by streptavidin bead based pull-down assay; format: cell-based
T1 sequence (whole entry): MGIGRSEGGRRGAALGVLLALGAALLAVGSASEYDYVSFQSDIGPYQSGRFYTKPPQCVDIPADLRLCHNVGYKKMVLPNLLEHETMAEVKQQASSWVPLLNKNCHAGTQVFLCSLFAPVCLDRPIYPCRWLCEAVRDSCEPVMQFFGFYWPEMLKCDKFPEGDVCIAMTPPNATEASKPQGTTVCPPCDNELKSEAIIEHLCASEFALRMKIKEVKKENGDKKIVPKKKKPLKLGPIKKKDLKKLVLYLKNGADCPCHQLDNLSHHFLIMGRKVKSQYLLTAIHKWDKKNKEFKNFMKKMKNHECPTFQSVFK

[18] = test system: Rattus norvegicus; assay: Anti-hepatic fibrosis activity in bile duct ligation rat model assessed as reduction in CTGF mRNA expression at 100 mg/kg, po administered for 14 days by qRT-PCR analysis; format: functional, organism-based; conditions: time 14.0 day
[19] = test system: Rattus norvegicus; assay: Anti-hepatic fibrosis activity in bile duct ligation rat model assessed as reduction in MMP2 protein expression at 100 mg/kg, po administered for 14 days by Western blot analysis; format: functional, organism-based; conditions: time 14.0 day
[20] = test system: HSC-T6; assay: Anti-fibrosis effect in HSC-T6 cells assessed as reduction in TGFbeta1-induced COL1A1 protein expression measured for 24 hrs; format: functional, cell-based; conditions: Rattus norvegicus, dose 2.5-20 µM
[21] = test system: Mus musculus; assay: Anti-hepatic fibrosis activity in MDR2 knockout liver injury mouse model assessed as reduction in TGFB1 mRNA expression at 100 mg/kg, po administered once a day for 4 weeks by qRT-PCR analysis; format: functional, organism-based
[22] = test system: LX-2; assay: Anti-fibrosis effect in human LX2 cells assessed as reduction in TGFbeta1-induced alpha-SMA mRNA expression at 10 to 20 uM measured for 24 hrs; format: functional, cell-based; conditions: dose 10-20 µM

Q: Which results are given for `CCCC[C@@H]1[C@H]2CCCN3CCC[C@@H](CN1C(=O)Nc1c(CC)cccc1CC)[C@@H]23`?
A: selectivity ratio [1]: 37.4; Activity [2]: inactive; Activity [3]: Active; Activity [4]: 286.6 U/L; Activity [5]: Active; Activity [6]: Active; Activity [7]: 36.5 U/L; Activity [8]: Active; Activity [9]: Active; Activity [10]: 4.91 µmol/L; Activity [11]: Active; Activity [12]: Active; Activity [13]: 375 U/L; Activity [14]: Active; Activity [15]: 295.2 U/L; Activity [16]: 6.58 µmol/L; Activity [17]: inactive; Activity [18]: Active; Activity [19]: Active; Activity [20]: Dose-Dependent Effect; Activity [21]: Active; Activity [22]: Active
